The source of these data is BindingDB's records for doi:10.1021/acsmedchemlett.7b00245 (University of Iowa, 2017).

In general, EC50 refers to the concentration at which the effect is half-maximal.

A short description of this assay: Activation of BTN3A1 in human PBMC-derived Vgamma9Vdelta2 T cells assessed as induction of interleukin 2 stimulated cell proliferation by measuring increase in CD3 positive cells incubated for 3 days followed by 11 days incubation post compound wash out with subsequent stimulation with IL-2 every 3 days measured after 14 days by flow cytometr. A general note: A flow cytometer gives signals particle by particle.
In the case of `COP(=O)(CC/C=C(\C)CO)Oc1cccc2ccccc12` (configuration not stated), the EC50 is 5500 nM.

With `C/C(=C\CCP(=O)(COC(=O)C(C)(C)C)Oc1cccc2ccccc12)CO` (configuration not stated), the EC50 was determined as 0.79 nM.

With `C/C(=C\CCP(=O)(COC(=O)C(C)(C)C)OCOC(=O)C(C)(C)C)CO` (configuration not stated), the EC50 worked out at 5.4 nM.

Regarding `C/C(=C\CCP(=O)(O)Oc1cccc2ccccc12)CO`, the concentration giving a half-maximal response (EC50) was determined as 610 nM.

`C/C(=C\CCP(=O)(O)Oc1ccccc1)CO`: the half-maximal effective concentration (EC50) came out at 870 nM.

As to `COP(=O)(CC/C=C(\C)CO)Oc1ccccc1` (configuration not stated), the EC50 turned out to be 33000 nM.

As for `C/C(=C\CCP(=O)(COC(=O)C(C)(C)C)Oc1ccccc1)CO` (configuration not stated), the EC50 came out at 14 nM.
